Experimental data: patent publication US20070059769A1, “High throughput glycan microarrays” (priority 2004, published 2007)
Like-named read-outs stand apart in the source and are kept apart here.

Key:
β3GlcNAcT = β3GlcNAcT acceptor specificity; conditions: acceptor substrate; lactose (4) = 100%
Protocol: Both enzymes, β4GalT-GalE and β3GlcNAcT, were over expressed in E. coli AD202 in a large-scale fermentor (100 L). Bacteria were cultured in 2YT medium and induced with iso-propyl-thiogalactopyranoside (IPTG) to ultimately produce 8-10 g of bacterial cell paste/L cell media. The enzymes were then released from the cells by a microfluidizer and were solubilized in Tris buffer (25 mM, pH 7.5) containing manganese chloride (10 mM) and Triton X (0.25%) to reach enzymatic activities of about 50 U/L and 115 U/L of cell culture β4GalT-GalE and β3GlcNAcT, respectively.

chST6GalNAc-I = molecular target: T1, chST6GalNAc-I (Gallus gallus, UniProt Q92183); experiment: chST6GalNAc-I activity on small acceptor molecules; format: biochemical, chicken; conditions: α-D-galacto derivative as acceptor
T1 construct: made in house; host or cells: insect cells
T1 sequence (Q92183 whole entry): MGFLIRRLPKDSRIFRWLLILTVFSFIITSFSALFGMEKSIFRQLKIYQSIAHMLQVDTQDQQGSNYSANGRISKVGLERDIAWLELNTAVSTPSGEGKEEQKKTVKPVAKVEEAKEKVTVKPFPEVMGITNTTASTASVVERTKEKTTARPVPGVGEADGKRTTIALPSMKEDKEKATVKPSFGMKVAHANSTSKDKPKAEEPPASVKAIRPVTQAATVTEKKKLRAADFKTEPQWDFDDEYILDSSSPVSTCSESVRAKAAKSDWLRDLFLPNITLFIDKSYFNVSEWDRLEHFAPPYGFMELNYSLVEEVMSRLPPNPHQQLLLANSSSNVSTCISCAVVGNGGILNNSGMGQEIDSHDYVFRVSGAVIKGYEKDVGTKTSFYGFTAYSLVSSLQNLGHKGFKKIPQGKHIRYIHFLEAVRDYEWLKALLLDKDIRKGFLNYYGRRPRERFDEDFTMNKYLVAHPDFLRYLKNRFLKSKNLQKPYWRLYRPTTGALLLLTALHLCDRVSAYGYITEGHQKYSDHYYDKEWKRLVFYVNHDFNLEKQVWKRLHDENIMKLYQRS
Source text: The inventors have previously reported the cloning, expression, and characterization of chicken ST6GalNAc-I and its use in preparative synthesis of the O-linked sialoside antigens, STn-, α(2-6)SiaT-, α(2-3)SiaT- and Di-SiaT-antigen. Blixt, O.; Allin, K.; Pereira, L.; Datta, A. and Paulson, J. C., J. Am. Chem. Soc. 2002, 124, 5739-5746. Briefly, the recombinant enzyme was expressed in insect cells and purified by CDP-sepharose affinity chromatography to generate approximately 10 U/L of cell culture.

[1] = tested on: anti-carbohydrate antibodies in sera of metastatic breast cancer patients; experiment: glycan array binding of antibodies in sera of metastatic breast cancer patients; parameters: species or system human; conditions: sera diluted 1:25
Protocol: Individual (not pooled) sera were collected from 9 patients who were diagnosed with metastatic breast cancer (MBC). Blood samples were collected before treatment, so that therapeutic intervention would not interfere with patient immune responses. One patient with breast cancer but with good prognosis (IDC, Stage 1) was also included in the study. As control, or “healthy” sera, sera from ten healthy individuals, 5 female and 5 male, with no known malignancies was collected.
(§1) Sera were diluted 1:25 with PBS containing 3% BSA, and placed on the glycan array slide in humidified chamber at room temperature for 90 min. The glycan array slide was then rinsed gently with PBS/0.05% Tween, incubated with biotinylated goat antibody against human IgG, IgM and IgA, rinsed in PBS/0.05% Tween, and incubated with streptavidin-Alexa488 fluorescent dye. Following rinses in PBS/0.05% Tween and H2O, glycan array slides were dried and scanned using the commercial DNA array scanner. […] Signal to background was typically greater 50:1 and no background subtractions were performed. Data were plotted using MS Excel software.

[2] = tested on: serum antibodies of xenotransplant recipients; experiment: glycan array binding of antibodies in sera of recipients of porcine fetal pancreas islet-like cell clusters; parameters: species or system human; conditions: before and 1, 6, 12 months after transplantation
Protocol: In 1991-1994, several diabetic (I) patients received transplantation of porcine fetal pancreas islet-like cell clusters (ICC). See, Groth, C. G. et al. Transplantation of porcine fetal pancreas to diabetic patients, The Lancet 344: 1402-4 (1994). The inventor analyzed serum from three of these patients before transplant (t=0), 1 months after (t=1), 6 months after (t=2) and 12 months after (t=3) transplant.
as §1, with “as needed” for “1:25”

2G12 = experiment: glycan array binding of anti-HIV 2G12 monoclonal antibody; parameters: species or system human
Concanavalin A = Concanavalin A (Canavalia ensiformis, UniProt P02866); conditions: printing times up to 5 hours
Protocol: Glycan Binding Protein binding assay. Printed slides were analyzed without any further modification of the surface. […] GBP's were added at a concentration of 5-50 μg/mL in buffer (usually PBS containing 0.005-0.5% Tween-20). […] Slides were subsequently washed by successive rinses in (i) PBS-Tween (0.05%), (ii) PBS and (iii) de-ionized water, then immediately subjected to imaging.
Image acquisition and signal processing. Fluorescence intensities were detected using a ScanArray 5000 (Perkin Elmer, Boston, Mass.) confocal scanner and image analyses were carried out using ImaGene image analysis software (BioDiscovery Inc, El Segundo, Calif.). Signal to background was typically greater than 50:1 and no background subtractions were performed.
Binding of fluorescein-labeled concanavalin A (con A) was used as a measure of ligand coupling.

Molecule: OCC1O[C@@H](O)C(O)[C@@H](O)[C@@H]1O[C@@H]1OC(CO)[C@H](O)[C@H](O)C1O (stereo partly shown) [Acceptor 4, Galβ(1-4)Glc]
- Relative enzyme activity (%) β(1-3)GlcNAcT-activity (β3GlcNAcT): 100%

Molecule: O=[N+]([O-])c1ccc(O[C@@H]2OC(CO)[C@@H](O[C@@H]3OC(CO)[C@H](O)[C@H](O)C3O)[C@H](O)C2O)cc1 (stereo partly shown) [Compound 5]
- Relative enzyme activity (%) β(1-3)GlcNAcT-activity (β3GlcNAcT): 945%

Molecule: CC(=O)N[C@H]1C(O)O[C@H](CO)[C@H](O)[C@@H]1O (stereo partly drawn) [D-GalNAc]
- chST6GalNAc-I activity, cpm (chST6GalNAc-I): 0 cpm
- chST6GalNAc-I activity, nmol/mg × min^−1 (chST6GalNAc-I): 0.00 nmol/mg × min^−1

Molecule: CC(=O)N[C@H]1[C@H](O[C@H]2[C@@H](O)[C@@H](CO)O[C@@H](O[C@H]3[C@H](O)[C@@H](O)C(O)O[C@@H]3CO)[C@@H]2O)O[C@H](CO)[C@@H](O)[C@@H]1O (stereo partly drawn) [LNT-2, GlcNAc-beta3-Gal-beta4-Glc-beta]
- binding by / level of serum antibodies in metastatic breast cancer patients versus healthy individuals [1]: bind and higher than in the healthy individuals

Molecule: Fucose-alpha2-Gal-beta3-GalNAc-beta3-Gal-alpha4-Gal-beta4-Glc [Globo-H]
- binding by / level of serum antibodies in metastatic breast cancer patients versus healthy individuals [1]: bind and higher than in the healthy individuals

Molecule: Gal-beta3-GalNAc-beta4-[Neu5Ac-alpha3]-Gal-beta4-Glc-beta [GM1]
- binding by / level of serum antibodies in metastatic breast cancer patients versus healthy individuals [1]: bind and higher than in the healthy individuals

Molecule: Galα1-3Galβ1-4(Fucα1-3)GlcNAcβSp [Glycan 34]
- reactivity of serum antibodies of xenotransplant recipients [2]: clearly exhibit an immune response

Molecule: Galβ1-4(Fucα1-3)GlcNAcβSp [Glycan 65]
- reactivity of serum antibodies of xenotransplant recipients [2]: do not have antibodies

Molecule: Galβ(1-4)GlcNAc [Acceptor 6]
- Relative enzyme activity (%) β(1-3)GlcNAcT-activity (β3GlcNAcT): 7-8%

Molecule: Manα1-2Manα1-2Manα1-3(Manα1-2Manα1-3(Manα1-2Manα1-6)Manα1-6)Manβ1-4GlcNAcβ1-4GlcNAcβSp [Glycan 145]
- binding of 2G12 (2G12; listed as Man9): relatively weakly bound
- binding of 2G12 (2G12; listed as Man-9-N-glycans): smaller level of binding

Molecule: Manα1-2Manα1-3(Manα1-2Manα1-6)ManαSp [Glycan 136]
- binding of 2G12 (2G12): strong binding
- Rel. spec. (relative binding activity of 2G12) (2G12; 2G12 30 μg/mL pre-complexed with goat anti-human-IgG-FITC): +++ (+++ >25,000)
- variation in maximal binding of con A (Concanavalin A): less than 10%

Molecule: Manα1-2Manα1-6(Manα1-3)Manα1-6(Manα1-2Manα1-3)Manβ1-4GlcNAcβ1-4GlcNAcβSp [Glycan 144]
- binding of 2G12 (2G12): strong preference

Molecule: Manα1-3Manα1-6(Manα1-2Manα1-3)Manβ1-4GlcNAcβ1-4GlcNAcβSp [Glycan 140]
- binding of 2G12 (2G12): did not support binding at all

Molecule: Manα1-6(Manα1-2Manα1-3)Manα1-6(Manα1-2Manα1-3)Manβ1-4GlcNAcβ1-4GlcNAcβSp [Glycan 143]
- binding of 2G12 (2G12): did not support binding at all

Molecule: Manα1-6(Manα1-3)Manα1-6(Manα1-2Manα1-3)Manβ1-4GlcNAcβ1-4GlcNAcβSp [Glycan 142]
- binding of 2G12 (2G12): did not support binding at all

Molecule: Neu5Acα2-6GalNAcα-
- binding by / level of serum antibodies in metastatic breast cancer patients versus healthy individuals [1]: significantly higher levels

Molecule: Neu5Gc(2-6)GalNAc
- binding by / level of serum antibodies in metastatic breast cancer patients versus healthy individuals [1]: bind

B1: Ceruloplasmine (protein, UniProt P00450 20-1065, looked up)
Ceruloplasmin: KEKHYYIGIIETTWDYASDHGEKKLISVDTEHSNIYLQNGPDRIGRLYKKALYLQYTDETFRTTIEKPVWLGFLGPIIKAETGDKVYVHLKNLASRPYTFHSHGITYYKEHEGAIYPDNTTDFQRADDKVYPGEQYTYMLLATEEQSPGEGDGNCVTRIYHSHIDAPKDIASGLIGPLIICKKDSLDKEKEKHIDREFVVMFSVVDENFSWYLEDNIKTYCSEPEKVDKDNEDFQESNRMYSVNGYTFGSLPGLSMCAEDRVKWYLFGMGNEVDVHAAFFHGQALTNKNYRIDTINLFPATLFDAYMVAQNPGEWMLSCQNLNHLKAGLQAFFQVQECNKSSSKDNIRGKHVRHYYIAAEEIIWNYAPSGIDIFTKENLTAPGSDSAVFFEQGTTRIGGSYKKLVYREYTDASFTNRKERGPEEEHLGILGPVIWAEVGDTIRVTFHNKGAYPLSIEPIGVRFNKNNEGTYYSPNYNPQSRSVPPSASHVAPTETFTYEWTVPKEVGPTNADPVCLAKMYYSAVEPTKDIFTGLIGPMKICKKGSLHANGRQKDVDKEFYLFPTVFDENESLLLEDNIRMFTTAPDQVDKEDEDFQESNKMHSMNGFMYGNQPGLTMCKGDSVVWYLFSAGNEADVHGIYFSGNTYLWRGERRDTANLFPQTSLTLHMWPDTEGTFNVECLTTDHYTGGMKQKYTVNQCRRQSEDSTFYLGERTYYIAAVEVEWDYSPQREWEKELHHLQEQNVSNAFLDKGEFYIGSKYKKVVYRQYTDSTFRVPVERKAEEEHLGILGPQLHADVGDKVKIIFKNMATRPYSIHAHGVQTESSTVTPTLPGETLTYVWKIPERSGAGTEDSACIPWAYYSTVDQVKDLYSGLIGPLIVCRRPYLKVFNPRRKLEFALLFLVFDENESWYLDDNIKTYSDHPEKVNKDDEEFIESNKMHAINGRMFGNLQGLTMHVGDEVNWYLMGMGNEIDLHTVHFHGHSFQYKHRGVYSSDVFDIFPGTYQTLEMFPRTPGIWLLHCHVTDHIHAGMETTYTVLQNEDTKSG
modifications: N-glycans
notes: mixture of bi and tri- and tetra-antenary N-glycans
- binding by / level of serum antibodies in metastatic breast cancer patients versus healthy individuals [1]: bind and significantly higher levels
